Source: the supplement of paper PMC10949913

Legend:
Assay in all cases: area under concentration-response curve (viability) (AUC (a.u.)); higher = less active
Details in all cases: 48 h
CU-ACC2 = system: CU-ACC2
Summary of the method: (§1)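 AC50 and area under the curve values derive from fitted concentration-response curves, restricted to inhibitory or non-responding curve classes. The curves came from three adrenocortical carcinoma cell lines in 1,536-well plates, each receiving 23 nL of every library compound at 11 concentrations. Viability was read by CellTiter-Glo luminescence after 48 h, normalised per plate to vehicle and empty-well controls.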

CU-ACC1 = system: CU-ACC1
Summary of the method: as §1

NCI-H295R = system: NCI-H295R
Summary of the method: as §1

| SMILES | area under concentration-response curve (CU-ACC2) | area under concentration-response curve (CU-ACC1) | area under concentration-response curve (NCI-H295R) |
| --- | --- | --- | --- |
| CN(CC(=O)N(Cc1ccc(C2CCCCC2)cc1)c1ccc(C(=O)O)c(O)c1)[S+](=O)([O-])c1c(F)c(F)c(F)c(F)c1F | 558 | 486 | 536 |
| C[C@@H](N)[C@H]1CC[C@H](C(=O)Nc2ccncc2)CC1 | 487 | 472 | 448 |
| CC(C)NC(=O)N1CC[C@@H](C1)NC/2=N/C3=C(C=CC(=C3)F)N(CC(F)F)C4=C2C=C(Cl)C=C4 | 656 | 580 | 580 |
| [O-]C(=O)C/1=N/C(=O)NC(=O)N1 | 608 | 418 | 551 |
| O=C1\C=C(OC2=C(C=CC=C12)C3=CC=CC4=C3SC5=C4C=CC=C5)\N6CCOCC6 | 557 | 374 | 497 |
| CC1(C)CC[C@@]2(CC[C@]3(C)\C(=C/C[C@@H]4[C@@]5(C)C[C@@H](O)[C@H](O)C(C)(C)[C@@H]5CC[C@@]34C)[C@@H]2C1)C(O)=O | 574 | 478 | 531 |
| C[C@@H]1C\C2=C(CCC(=O)C2)/[C@H]3CC[C@@]4(C)[C@@H](CC[C@@]4(O)C#C)[C@H]13 | 592 | 560 | 547 |
| Clc1ccccc1C(c1ccccc1)(c1ccccc1)n1cccn1 | 489 | 496 | 520 |
| C1Cc2[nH]nc(-c3nn[nH]n3)c2C1 | 624 | 544 | 514 |
| COC1=CC(=C2C(=O)N\C(=N/C2=C1)C3=CC(=C(OCCO)C(=C3)C)C)OC | 532 | 532 | 541 |
| CNC(=O)[C@@H](NC(=O)[C@H](CC(C)C)[C@H](O)C(=O)NO)C(C)(C)C | 615 | 513 | 563 |
| CCN(CCCOc1ccc2c(Nc3cc(CC(=O)Nc4cccc(F)c4)[nH]n3)ncnc2c1)CCOP(=O)(O)O | 579 | 471 | 495 |
| CC1CNc2c(cccc2[S+](=O)([O-])N[C@@H](CCCNC(=N)N)C(=O)N2CC[C@@H](C)C[C@@H]2C(=O)O)C1 (stereo partly drawn) | 547 | 502 | 507 |
| Nc1nc(Cl)nc2c1ncn2[C@H]1C[C@H](O)[C@@H](CO)O1 | 601 | 558 | 537 |
| N\C1=N\C2=C(N=C[N]2COCCO)C(=O)N1 | 616 | 420 | 584 |
| CCN1/C(=C/C(C)=O)Sc2ccc(OC)cc21 | 569 | 467 | 515 |
| CC(NC1=NC=NC2=C1[NH]C=N2)\C3=C\C4=C(C(=CC=C4)Cl)C(=O)N3C5=CC=CC=C5 (stereo not drawn) | 569 | 432 | 580 |
| C[C@]12CC[C@@H]3c4ccc(O)cc4C[C@@H](CCCCCCCCC[S+]([O-])CCCC(F)(F)C(F)(F)F)[C@H]3[C@@H]1CC[C@@H]2O (stereo partly drawn) | 564 | 391 | 530 |
| C[C@H]1CC[C@H](n2c3cnccc3c3cnc(Nc4ccc5c(n4)CCN(C(=O)CO)C5)nc32)CC1 | 622 | 601 | 596 |
| CC(O)(C[S+](=O)([O-])c1ccc(F)cc1)C(=O)Nc1ccc(C#N)c(C(F)(F)F)c1 (stereo not drawn) | 482 | 454 | 447 |
| OCCN1C[C@H](O)[C@@H](O)[C@H](O)[C@H]1CO | 540 | 519 | 489 |

| SMILES | area under concentration-response curve (CU-ACC2) | area under concentration-response curve (CU-ACC1) | area under concentration-response curve (NCI-H295R) |
| --- | --- | --- | --- |
| C#C[C@]1(O)CC[C@H]2[C@@H]3CCc4cc(OC)ccc4[C@H]3CC[C@@]21C | 475 | 414 | 457 |
| COc1cc(SC)ccc1C(=O)N1CCC(Cc2ccccc2)CC1 | 501 | 522 | 538 |
| CCCCCCNC(=O)N1\C=C(F)/C(=O)NC1=O | 633 | 513 | 589 |
| Cc1nn(C)c(COc2ccc(N3CCN([S+](=O)([O-])N(C)C)CC3)cc2)c1-c1cccc2c(CCCOc3cccc4ccccc34)c(C(=O)O)n(CCN3CCOCC3)c12 | 580 | 517 | 508 |
| Cc1ccc([S+](=O)([O-])OCC(=O)Nc2ccc(C(=O)O)c(O)c2)cc1 | 589 | 543 | 546 |
| COCC1(CO)C(=O)C2CCN1CC2 (stereo not drawn) | 513 | 443 | 468 |
| O=c1oc2c(O)c(O)cc3c(=O)oc4c(O)c(O)cc1c4c23 | 579 | 482 | 517 |
| COc1ccc2c(c1)CC[C@@H](CN(C)CC(=O)O)[C@H]2c1ccccc1 | 514 | 487 | 464 |
| NC(=O)OCC(COC(N)=O)c1ccccc1 | 554 | 497 | 460 |
| CC(=O)Nc1ccc(O)cc1 | 467 | 348 | 445 |
| O=C(O)/C=C/c1ccc(Cn2ccnc2)cc1 | 486 | 485 | 572 |
| COc1cc(C(C)C)c(Oc2cnc(NC(CO)CO)nc2N)cc1I | 661 | 557 | 594 |
| CN1\C(=C([O-])/C2=CC=CC=C2[S+]1([O-])=O)C(=O)NC3=NC=C(C)S3 | 572 | 479 | 525 |
| Oc1cc(O)cc(/C=C/c2ccc(O)c(O)c2)c1 | 511 | 519 | 525 |
| c1ccc2[nH]c(-c3cscn3)nc2c1 | 630 | 557 | 556 |
| OCCn1cc(-c2ccc3c(c2)CC/C3=N\O)c(-c2ccncc2)n1 | 595 | 492 | 538 |
| CCN(C(=O)c1ccccc1OC)c1cc2c(cc1N1CCNC[C@H]1C)n(C)c(=O)n2C | 628 | 544 | 510 |
| Cn1cnc2c(F)c(Nc3ccc(Br)cc3Cl)c(C(=O)NOCCO)cc21 | 493 | 463 | 500 |
| Oc1ccc(C2CNCCc3c2cc(O)c(O)c3Cl)cc1 (stereo not drawn) | 538 | 468 | 524 |
| Nc1ncnc2ccccc12 | 633 | 534 | 566 |
